The CheMixHub viscosity set
Values joined by “and” are separate entries in the source; they are usually repeats but may differ in a detail not shown here. Equal entries are not always repeated.

Experiment: xn = mol fraction of the nth substance listed

CC(C)O + O
Settings | viscosity
308.15 K, 101 kPa, x2 = 0.26 | 1.616 mPa·s
308.15 K, 101 kPa, x2 = 0.4678 | 1.856 mPa·s
308.15 K, 101 kPa, x2 = 0.6079 | 2.072 mPa·s
308.15 K, 101 kPa, x2 = 0.685 | 2.169 mPa·s
308.15 K, 101 kPa, x2 = 0.7249 | 2.178 mPa·s
308.15 K, 101 kPa, x2 = 0.805 | 2.088 mPa·s
308.15 K, 101 kPa, x2 = 0.89 | 1.675 mPa·s
308.15 K, 101 kPa, x2 = 0.9549 | 1.23 mPa·s
313.15 K, 101 kPa, x1 = 0.01 | 0.733 mPa·s
313.15 K, 101 kPa, x1 = 0.02 | 0.823 mPa·s
313.15 K, 101 kPa, x1 = 0.032 | 0.933 mPa·s
313.15 K, 101 kPa, x1 = 0.05 | 1.098 mPa·s
313.15 K, 101 kPa, x1 = 0.07069 | 1.27 mPa·s
313.15 K, 101 kPa, x1 = 0.1 | 1.458 mPa·s
313.15 K, 101 kPa, x1 = 0.11 | 1.495 mPa·s
313.15 K, 101 kPa, x1 = 0.2 | 1.789 mPa·s
313.15 K, 101 kPa, x1 = 0.23 | 1.821 mPa·s
313.15 K, 101 kPa, x1 = 0.41 | 1.731 mPa·s
313.15 K, 101 kPa, x2 = 0.1049 | 1.365 mPa·s
313.15 K, 101 kPa, x2 = 0.26 | 1.412 mPa·s
313.15 K, 101 kPa, x2 = 0.4678 | 1.604 mPa·s
313.15 K, 101 kPa, x2 = 0.6079 | 1.788 mPa·s
313.15 K, 101 kPa, x2 = 0.685 | 1.855 mPa·s
313.15 K, 101 kPa, x2 = 0.7249 | 1.858 mPa·s
313.15 K, 101 kPa, x2 = 0.805 | 1.781 mPa·s
313.15 K, 101 kPa, x2 = 0.89 | 1.447 mPa·s
313.15 K, 101 kPa, x2 = 0.9549 | 1.076 mPa·s
313.15 K, 101.33 kPa, x1 = 0.015 | 0.7848 mPa·s
313.15 K, 101.33 kPa, x1 = 0.05 | 1.113 mPa·s
313.15 K, 101.33 kPa, x1 = 0.075 | 1.292 mPa·s
313.15 K, 101.33 kPa, x1 = 0.1 | 1.453 mPa·s
313.15 K, 101.33 kPa, x1 = 0.15 | 1.665 mPa·s
313.15 K, 101.33 kPa, x1 = 0.2 | 1.777 mPa·s
313.15 K, 101.33 kPa, x1 = 0.25 | 1.823 mPa·s
313.15 K, 101.33 kPa, x1 = 0.3 | 1.822 mPa·s
313.15 K, 101.33 kPa, x1 = 0.4 | 1.756 mPa·s
313.15 K, 101.33 kPa, x1 = 0.5 | 1.649 mPa·s
313.15 K, 101.33 kPa, x1 = 0.6 | 1.539 mPa·s
313.15 K, 101.33 kPa, x1 = 0.7 | 1.446 mPa·s
313.15 K, 101.33 kPa, x1 = 0.8 | 1.375 mPa·s
313.15 K, 101.33 kPa, x1 = 0.85 | 1.35 mPa·s
313.15 K, 101.33 kPa, x1 = 0.9 | 1.327 mPa·s
313.15 K, 101.33 kPa, x1 = 0.925 | 1.331 mPa·s
313.15 K, 101.33 kPa, x1 = 0.95 | 1.332 mPa·s
313.15 K, 101.33 kPa, x1 = 0.975 | 1.336 mPa·s
318.15 K, 101 kPa, x1 = 0.01 | 0.664 mPa·s
318.15 K, 101 kPa, x1 = 0.02 | 0.739 mPa·s
318.15 K, 101 kPa, x1 = 0.032 | 0.836 mPa·s
318.15 K, 101 kPa, x1 = 0.05 | 0.966 mPa·s
318.15 K, 101 kPa, x1 = 0.07069 | 1.103 mPa·s
318.15 K, 101 kPa, x1 = 0.1 | 1.261 mPa·s
318.15 K, 101 kPa, x1 = 0.11 | 1.315 mPa·s
318.15 K, 101 kPa, x1 = 0.2 | 1.539 mPa·s
318.15 K, 101 kPa, x1 = 0.23 | 1.579 mPa·s
318.15 K, 101 kPa, x1 = 0.41 | 1.484 mPa·s
318.15 K, 101 kPa, x2 = 0.1049 | 1.182 mPa·s
318.15 K, 101 kPa, x2 = 0.26 | 1.237 mPa·s
318.15 K, 101 kPa, x2 = 0.4678 | 1.397 mPa·s
318.15 K, 101 kPa, x2 = 0.6079 | 1.561 mPa·s
318.15 K, 101 kPa, x2 = 0.685 | 1.604 mPa·s
318.15 K, 101 kPa, x2 = 0.7249 | 1.598 mPa·s
318.15 K, 101 kPa, x2 = 0.805 | 1.539 mPa·s
318.15 K, 101 kPa, x2 = 0.89 | 1.255 mPa·s
318.15 K, 101 kPa, x2 = 0.9549 | 0.95 mPa·s
323.15 K, 100 kPa, x1 = 0.2 | 1.375 mPa·s and 1.3 mPa·s
323.15 K, 100 kPa, x1 = 0.3 | 1.387 mPa·s
323.15 K, 100 kPa, x2 = 0.1 | 1.03 mPa·s
323.15 K, 100 kPa, x2 = 0.2 | 1.08 mPa·s
323.15 K, 100 kPa, x2 = 0.3 | 1.11 mPa·s
323.15 K, 100 kPa, x2 = 0.4 | 1.21 mPa·s
323.15 K, 100 kPa, x2 = 0.5 | 1.26 mPa·s
323.15 K, 100 kPa, x2 = 0.6 | 1.37 mPa·s
323.15 K, 100 kPa, x2 = 0.7 | 1.37 mPa·s
323.15 K, 100 kPa, x2 = 0.8 | 1.37 mPa·s
323.15 K, 100 kPa, x2 = 0.9 | 1.14 mPa·s
323.15 K, 101 kPa, x1 = 0.01 | 0.604 mPa·s
323.15 K, 101 kPa, x1 = 0.02 | 0.668 mPa·s
323.15 K, 101 kPa, x1 = 0.05 | 0.856 mPa·s
323.15 K, 101 kPa, x1 = 0.07069 | 0.969 mPa·s
323.15 K, 101 kPa, x1 = 0.1 | 1.101 mPa·s
